Test results: US6642391B2, “Amycomycin, a process for its production and its use as a pharmaceutical” (priority 1999, dated 2003)
In brackets after ≈: the same amount, converted by molar mass. Where two headings read alike, the source gives them in different places.

Tests used:
[1] = test system: gram-positive bacteria such as Staphylo- and Enterococci; experiment: Antibacterial activity; format: cell-based; settings: particularly against gram-positive bacteria such as Staphylo- and Enterococci
Text: (§1) Lately, these strains have proven increasingly to be problem strains, i.e., those microorganisms that have become resistant to existing antibiotics. The superiority of the present compound in relation to other antibiotics is shown, for example, in the inhibition of vancomycin- and teicoplanin-resistant strains such as, for example, E. faecalis, E. faecium or E. gallinarium.

S.aureus 011DU5 = experiment: MIC micro-dilutions test; format: cell-based; settings: Staphylococcus aureus
Text: as §1

S.aureus 011HT18 = experiment: MIC micro-dilutions test; format: cell-based; settings: Staphylococcus aureus
Text: as §1

S.epidermidis 012GO42 = experiment: MIC micro-dilutions test; format: cell-based; settings: Staphylococcus epidermidis; S.epidermidis 012GO42, oxa R; Gram-positive; read-out: Minimum Inhibition Concentration
Text: as §1

S.pneumoniae 030BI2 = experiment: MIC micro-dilutions test; format: cell-based; settings: Streptococcus pneumoniae
Text: as §1

E.faecalis O2D2HM9 = experiment: MIC micro-dilutions test; format: cell-based; settings: Enterococcus faecalis
Text: as §1

S.aureus 011GO64 = experiment: MIC micro-dilutions test; format: cell-based; settings: Staphylococcus aureus
Text: as §1

S.pyogenes O2A1SJ1 = experiment: MIC micro-dilutions test; format: cell-based; settings: Streptococcus pyogenes
Text: as §1

[2] = test system: Staph.coag.negative 012HT5; experiment: MIC micro-dilutions test; format: cell-based; settings: read-out: Minimum Inhibition Concentration
Text: as §1

P.aeruginosa 1771 391HT2 = experiment: MIC micro-dilutions test; format: cell-based; settings: Pseudomonas aeruginosa, 1771391HT2, Gram-negative, read-out: Minimum Inhibition Concentration
Text: as §1

E.faecium O2D3HT12 = experiment: MIC micro-dilutions test; format: cell-based; settings: Enterococcus faecium
Text: as §1

S.pyogenes O2A1UC1 = experiment: MIC micro-dilutions test; format: cell-based; settings: Streptococcus pyogenes
Text: as §1

E.faecium O2D3HM3 = experiment: MIC micro-dilutions test; format: cell-based; settings: Enterococcus faecium
Text: as §1

S.aureus 011GO71 = experiment: MIC micro-dilutions test; format: cell-based; settings: Staphylococcus aureus
Text: as §1

S.aureus 011CB20 = experiment: MIC micro-dilutions test; format: cell-based; settings: Staphylococcus aureus
Text: as §1

E.faecalis O2D2HT10 = experiment: MIC micro-dilutions test; format: cell-based; settings: Enterococcus faecalis
Text: as §1

S.aureus 011HT3 = experiment: MIC micro-dilutions test; format: cell-based; settings: Staphylococcus aureus
Text: as §1

Strepto gr.G O2G0CB2 = experiment: MIC micro-dilutions test; format: cell-based; settings: read-out: Minimum Inhibition Concentration
Text: as §1

S.epidermidis 012GO20 = experiment: MIC micro-dilutions test; format: cell-based; settings: Staphylococcus epidermidis; S.epidermidis 012GO20, oxa S ery S tet R; Gram-positive; read-out: Minimum Inhibition Concentration
Text: as §1

[3] = test system: P.aeruginosa 1771m 391HT3; experiment: MIC micro-dilutions test; format: cell-based; settings: Pseudomonas aeruginosa, 1771M391HT3, read-out: Minimum Inhibition Concentration
Text: as §1

S.pyogenes O2A1FI6 = experiment: MIC micro-dilutions test; format: cell-based; settings: Streptococcus pyogenes
Text: as §1

S.mitis O2mitGR16 = experiment: MIC micro-dilutions test; format: cell-based; settings: Streptococcus mitis
Text: as §1

E.faecalis O2D2UC5 = experiment: MIC micro-dilutions test; format: cell-based; settings: Enterococcus faecalis
Text: as §1

S.aureus 011HT1 = experiment: MIC micro-dilutions test; format: cell-based; settings: Staphylococcus aureus
Text: as §1

E.gallinarium O2D0HM8 = experiment: MIC micro-dilutions test; format: cell-based; settings: read-out: Minimum Inhibition Concentration
Text: as §1

E.faecium O2D3AP9 = experiment: MIC micro-dilutions test; format: cell-based; settings: Enterococcus faecium
Text: as §1

E.faecalis O2D2DU18 = experiment: MIC micro-dilutions test; format: cell-based; settings: Enterococcus faecalis
Text: as §1

S.aureus 011GR91 = experiment: MIC micro-dilutions test; format: cell-based; settings: Staphylococcus aureus
Text: as §1

[4] = Physical-chemical characteristics: solubility; format: physicochemical; settings: solvents: methanol, DMSO, pyridine
Text: The physical-chemical as well as the spectroscopic characteristics of the compound Amycomycin according to the invention are as follows: […]

S.milleri O2milGR12 = experiment: MIC micro-dilutions test; format: cell-based; settings: S.milleri O2milGR12, ery S van S; Gram-positive; read-out: Minimum Inhibition Concentration
Text: as §1

E.faecium O2D3IP2 = experiment: MIC micro-dilutions test; format: cell-based; settings: Enterococcus faecium; E.faecium O2D3IP2, tei R van R ery R tet R; Gram-positive; read-out: Minimum Inhibition Concentration
Text: as §1

For `C/C(=C\CC(O)CC(O)CCC(C)C(O)C(C)C(O)CCCC(O)C(C)C(O)/C(C)=C/C(C)C(=O)/C(C)=C/C(O)C(O)CC(O)CC(O)C(C)CCC(O)CC(O)CCC(C)C(O)C(C)C(O)C(C)C)C(=O)C1=C(O)/C(=C/C(C)C)N(C)C1=O` (stereo not drawn) [Amycomycin], the antibacterial activity [1] was “extraordinary antibacterial activity”, the MIC (S.aureus 011DU5; S.aureus 011DU5, nov R tet R, Gram-positive, read-out: Minimum Inhibition Concentration) was 0.08 µg/mL (≈ 0.0667 µM) and the MIC (S.aureus 011HT18; ATCC13709, S.aureus 011HT18, ATCC 13709 Smith, Gram-positive, read-out: Minimum Inhibition Concentration) was 0.08 µg/mL (≈ 0.0667 µM). For the same molecule, the MIC (S.epidermidis 012GO42) was 0.3 µg/mL (≈ 0.25 µM), the MIC (S.pneumoniae 030BI2; S.pneumoniae 030BI2, ery R, Gram-positive, read-out: Minimum Inhibition Concentration) was 0.15 µg/mL (≈ 0.125 µM) and the MIC (E.faecalis O2D2HM9; E.faecalis O2D2HM9, nov R van B ery R tei S, Gram-positive, read-out: Minimum Inhibition Concentration) was 2.5 µg/mL (≈ 2.09 µM). For the same molecule, the MIC (S.aureus 011GO64; S.aureus 011GO64, ofl R oxa R ery Rc tet R, Gram-positive, read-out: Minimum Inhibition Concentration) was 0.3 µg/mL (≈ 0.25 µM), the MIC (S.pyogenes O2A1SJ1; S.pyogenes O2A1SJ1, van S ery Rc, Gram-positive, read-out: Minimum Inhibition Concentration) was 0.3 µg/mL (≈ 0.25 µM) and the MIC ([2]; Staph.coag.negative 012HT5, ofl R oxa R tet R, Gram-positive) was 0.15 µg/mL (≈ 0.125 µM). The MIC (P.aeruginosa 1771 391HT2) was greater than 40 µg/mL, the MIC (E.faecium O2D3HT12; E.faecium O2D3HT12, tei R van R ery R tet R, Gram-positive, read-out: Minimum Inhibition Concentration) was 0.6 µg/mL (≈ 0.501 µM) and the MIC (S.pyogenes O2A1UC1; S.pyogenes O2A1UC1, van S ery S, Gram-positive, read-out: Minimum Inhibition Concentration) was 0.6 µg/mL (≈ 0.501 µM). For the same molecule, the MIC (E.faecium O2D3HM3; E.faecium O2D3HM3, nov S van A ery R tei R, Gram-positive, read-out: Minimum Inhibition Concentration) was 1.2 µg/mL (≈ 1 µM), the MIC (S.aureus 011GO71; S.aureus 011GO71, ofl S oxa R ery S tet R, Gram-positive, read-out: Minimum Inhibition Concentration) was 0.15 µg/mL (≈ 0.125 µM) and the MIC (S.aureus 011CB20; S.aureus 011CB20, oxa R ery Rc tet R, Gram-positive, read-out: Minimum Inhibition Concentration) was 0.08 µg/mL (≈ 0.0667 µM). It also gave an MIC (E.faecalis O2D2HT10; E.faecalis O2D2HT10, nov R van S tet R, Gram-positive, read-out: Minimum Inhibition Concentration) of 1.2 µg/mL (≈ 1 µM), an MIC (S.aureus 011HT3; S.aureus 011HT3, oxa S ery S, Gram-positive, read-out: Minimum Inhibition Concentration) of 0.08 µg/mL (≈ 0.0667 µM) and an MIC (Strepto gr.G O2G0CB2; Strepto gr.G O2G0CB2, tet R rif R nov R, Gram-positive) of 0.6 µg/mL (≈ 0.501 µM). For the same molecule, the MIC (S.epidermidis 012GO20) was 0.3 µg/mL (≈ 0.25 µM), the MIC [3] was greater than 40 µg/mL and the MIC (S.pyogenes O2A1FI6; S.pyogenes O2A1FI6, ery R, Gram-positive, read-out: Minimum Inhibition Concentration) was 0.6 µg/mL (≈ 0.501 µM). It also gave an MIC (S.mitis O2mitGR16; S.mitis O2mitGR16, ery Ri van S, Gram-positive, read-out: Minimum Inhibition Concentration) of 1.2 µg/mL (≈ 1 µM), an MIC (E.faecalis O2D2UC5; ATCC29212, E.faecalis O2D2UC5, ATCC 29212 nov R, Gram-positive, read-out: Minimum Inhibition Concentration) of 2.5 µg/mL (≈ 2.09 µM) and an MIC (S.aureus 011HT1; S.aureus 011HT1, nov R, Gram-positive, read-out: Minimum Inhibition Concentration) of no more than 0.04 µg/mL. For the same molecule, the MIC (E.gallinarium O2D0HM8; E.gallinarium O2D0HM8, van C tet R ery S, Gram-positive) was 1.2 µg/mL (≈ 1 µM), the MIC (E.faecium O2D3AP9; E.faecium O2D3AP9, nov S van R ery S tei R, Gram-positive, read-out: Minimum Inhibition Concentration) was 0.6 µg/mL (≈ 0.501 µM) and the MIC (E.faecalis O2D2DU18; E.faecalis O2D2DU18, tet R nov R, Gram-positive, read-out: Minimum Inhibition Concentration) was 1.2 µg/mL (≈ 1 µM). For the same molecule, the MIC (S.aureus 011GR91; S.aureus 011GR91, pri R oxa R ery R nov R, Gram-positive, read-out: Minimum Inhibition Concentration) was 1.2 µg/mL (≈ 1 µM) and the “Solubility (Appearance)” value [4] was “colorless solid, soluble in methanol, DMSO,”.

`CN[C@H](CC(C)C)C(=O)N[C@H]1C(=O)N[C@@H](CC(N)=O)C(=O)N[C@H]2C(=O)N[C@H]3C(=O)N[C@H](C(=O)N[C@H](C(=O)O)c4cc(O)cc(O)c4-c4cc3ccc4O)[C@H](O)c3ccc(c(Cl)c3)Oc3cc2cc(c3O[C@@H]2O[C@H](CO)[C@@H](O)[C@H](O)[C@H]2O[C@H]2C[C@](C)(N)[C@H](O)[C@H](C)O2)Oc2ccc(cc2Cl)[C@H]1O` [Vancomycin, reference compound] gave an MIC (S.aureus 011DU5; 011DU5, read-out: Minimum Inhibition Concentration) of 0.15 µg/mL (≈ 0.104 µM), an MIC (S.aureus 011HT18; ATCC13709, read-out: Minimum Inhibition Concentration) of 0.3 µg/mL (≈ 0.207 µM) and an MIC (S.pneumoniae 030BI2; 030BI2, read-out: Minimum Inhibition Concentration) of 0.15 µg/mL (≈ 0.104 µM). The MIC (E.faecalis O2D2HM9; O2D2HM9, read-out: Minimum Inhibition Concentration) was greater than 40 µg/mL, the MIC (S.aureus 011GO64; 011GO64, read-out: Minimum Inhibition Concentration) was 1.2 µg/mL (≈ 0.828 µM) and the MIC (S.pyogenes O2A1SJ1; O2A1SJ1, read-out: Minimum Inhibition Concentration) was 0.15 µg/mL (≈ 0.104 µM). For the same molecule, the MIC [2] was 0.6 µg/mL (≈ 0.414 µM), the MIC (E.faecium O2D3HT12; O2D3HT12, read-out: Minimum Inhibition Concentration) was greater than 40 µg/mL and the MIC (S.pyogenes O2A1UC1; O2A1UC1, read-out: Minimum Inhibition Concentration) was 0.15 µg/mL (≈ 0.104 µM). For the same molecule, the MIC (E.faecium O2D3HM3; O2D3HM3, read-out: Minimum Inhibition Concentration) was greater than 40 µg/mL, the MIC (S.aureus 011GO71; 011GO71, read-out: Minimum Inhibition Concentration) was 0.6 µg/mL (≈ 0.414 µM) and the MIC (S.aureus 011CB20; 011CB20, read-out: Minimum Inhibition Concentration) was 0.15 µg/mL (≈ 0.104 µM). It also gave an MIC (S.milleri O2milGR12) of 0.3 µg/mL (≈ 0.207 µM), an MIC (E.faecalis O2D2HT10; O2D2HT10, read-out: Minimum Inhibition Concentration) of 0.6 µg/mL (≈ 0.414 µM) and an MIC (S.aureus 011HT3; 011HT3, read-out: Minimum Inhibition Concentration) of 0.3 µg/mL (≈ 0.207 µM). The MIC (Strepto gr.G O2G0CB2) was 0.15 µg/mL (≈ 0.104 µM), the MIC (S.pyogenes O2A1FI6; O2A1FI6, read-out: Minimum Inhibition Concentration) was 0.08 µg/mL (≈ 0.0552 µM) and the MIC (E.faecium O2D3IP2) was greater than 40 µg/mL. It also gave an MIC (S.mitis O2mitGR16; O2MITGR16, read-out: Minimum Inhibition Concentration) of 0.3 µg/mL (≈ 0.207 µM), an MIC (E.faecalis O2D2UC5; ATCC29212, read-out: Minimum Inhibition Concentration) of 2.5 µg/mL (≈ 1.73 µM) and an MIC (S.aureus 011HT1; 011HT1, read-out: Minimum Inhibition Concentration) of 0.08 µg/mL (≈ 0.0552 µM). The MIC (E.gallinarium O2D0HM8) was greater than 40 µg/mL, the MIC (E.faecium O2D3AP9; O2D3AP9, read-out: Minimum Inhibition Concentration) was greater than 40 µg/mL and the MIC (E.faecalis O2D2DU18; O2D2DU18, read-out: Minimum Inhibition Concentration) was 0.3 µg/mL (≈ 0.207 µM). It also gave an MIC (S.aureus 011GR91; 011GR91, read-out: Minimum Inhibition Concentration) of 1.2 µg/mL (≈ 0.828 µM).
